This data set in a line: gradient 5% acetonitrile 3 min, to 50% in 2 min, to 85% in 15 min, held 3 min, 100 µL/min. Particulars: column: Zorbax Extend-C18 2.1 x 50 mm; eluents: water / acetonitrile, 0.1% formic acid. Summed up: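 In both positive and negative ionization mode, a quadrupole time-of-flight mass spectrometer coupled to HPLC analyzed pure standards run in mixtures of ~100 molecules. The Zorbax Extend-C18 column (2.1 × 50 mm, 1.8 μm) was operated at 100 μL/min with water and acetonitrile, each containing 0.1% formic acid. The dead volume was 40 μL and the dwell volume 900 μL. Retention time came from adduct peaks that were computationally picked and individually inspected by hand.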
In turn, `COc1cc(OC)c(OC)cc1CN1C[C@@H]2C(=O)N(C)C(=O)[C@@H]2C1` returned an RP-LC retention time of 570 s.

`Cc1cc(C)n(CCNC(=O)Cc2ccc(SC(C)C)cc2)n1` gave an RP-LC retention time of 755 s.

In the case of `CN(C)C(=O)C1CCN(c2nc3ccc(-c4ccccc4)nc3s2)CC1`, the RP-LC retention time was 888 s. The figure for `COc1ccc(C(O)Cn2ccn3nc(-c4ccc(C)c(C)c4)cc3c2=O)cc1OC` (stereo not given) is 881 s; for `COCCCNC(=O)N1CCCN(C2=NS(=O)(=O)C(c3ccc(C)c(C)c3)=C2C)CC1` it is 739 s; for `Cc1cc(C)cc(NC(=O)N2CCC(N3CCN(Cc4cccc(F)c4)C(=O)C3=O)CC2)c1` it is 800 s. In turn, `CCC(C)NC(=O)C1CCN(c2cnn(Cc3ccccc3)c(=O)c2)CC1` (stereo not given) displayed an RP-LC retention time of 721 s.

On to `Cc1[nH]c2ccc(-c3nnc(SC(C)C(=O)Nc4ccc5c(c4)OCCO5)o3)cc2c1C` (stereo not given), for which the RP-LC retention time came to 936 s. The result for `CC(C)c1nnc(-c2ccc(S(=O)(=O)N3CCOCC3)o2)o1` reads 754 s; that for `CC(=O)N1CCc2ccccc2C1C(=O)NCc1cc(F)ccc1F` (stereo not given), 648 s. In the case of `CC(C)(C)c1ccc(C(=O)N2CCc3nc[nH]c3C2)cc1`, the RP-LC retention time is 634 s. Compound `COc1ccc(-c2cc3nn(CC(=O)NC(C)(C)C)c(=O)n3c(C)n2)cc1` returned an RP-LC retention time of 842 s. `O=C(CC1CCN(C(=O)c2ccc3oc(C4CC4)nc3c2)CC1)N1CCN(c2ccccn2)CC1` returned an RP-LC retention time of 602 s. The compound `COc1cccc(C2CC(c3ccc4c(c3)OCO4)=NC3(CCN(C(C)C)CC3)N2)c1O` (stereo not given) displayed an RP-LC retention time of 599 s. The result for `Cc1cc(=O)n(CC(=O)Nc2cccc(C)c2C)c(NCCCc2ccccc2)n1` reads 892 s; that for `Cc1ccc(S(=O)(=O)N2CCCOC2CNC(=O)C(=O)NCCCn2ccnc2)cc1` (stereo not given), 558 s; that for `CCc1nc(N)n(CC(=O)NCc2ccc3c(c2)OCO3)c(=O)c1C`, 556 s. `O=S(=O)(NCC(O)(c1ccccc1)C(F)(F)F)c1ccc(F)c(Cl)c1` (stereo not given) had an RP-LC retention time of 922 s.

Regarding `Cc1sc(NC(=O)c2cccc(Br)c2)nc1-c1ccc2c(c1)NC(=O)C(C)O2` (stereo not given), the RP-LC retention time is 1040 s.

`CCN(CC)CCOc1ccc(C(=C(Cl)c2ccccc2)c2ccccc2)cc1` gave an RP-LC retention time of 1010 s. On to `CCOc1ccccc1CNC(=O)c1nnc(-c2ccc(S(=O)(=O)N3CCC(C)CC3)cc2)o1`, for which the RP-LC retention time amounted to 1140 s. The figure for `Cc1ncoc1C(=O)N1CCC(C2CCN(S(C)(=O)=O)CC2)C1` (stereo not given) is 642 s; for `CCC(=O)N1CCCC1c1nc2ccccc2n1CC(=O)N1CCCC1` (stereo not given) it is 584 s. The figure for `CCc1nc(OCC(=O)Nc2cccc(Br)c2)c2ccccc2n1` is 889 s; for `CCc1nccn1Cc1nc(-c2cccc(F)c2)no1` it is 625 s. On to `CCCNC(=O)C1CCN(c2cnc(N3CCCCCC3)nc2)CC1`, for which the RP-LC retention time was found to be 666 s.

Regarding `CCCN(CC1CCOC1)C(=O)Nc1ccc(F)cc1` (stereo not given), the RP-LC retention time was determined as 728 s. `Cc1cccc(CNC(=O)CN2CCN(Cc3ccc(F)cc3)C(=O)C2=O)c1` returned an RP-LC retention time of 740 s.

`COc1ccc(-c2noc(C3CC(=O)N(c4cccc(Cl)c4)C3)n2)cc1` (stereo not given): the RP-LC retention time is 998 s. Take `O=C(Cn1c(=O)c2cc(C3CC3)nn2c2ncccc21)Nc1ccc(F)cc1F`: the RP-LC retention time stood at 779 s. The result for `CC(Cc1ccco1)NC(=O)C1CCN(S(=O)(=O)c2ccc3c(c2)NC(=O)CO3)CC1` (stereo not given) reads 726 s; that for `CCc1nccn1Cc1nc(-c2ccc(C)cc2)no1`, 646 s. The result for `O=C(Nc1ccc(F)cc1)C1CCCN(c2ccc3cc(S(=O)(=O)N4CCCC4)ccc3n2)C1` (stereo not given) reads 634 s; that for `COc1c(C(=O)Nc2ccc(N3CCOCC3)cc2)sc2ccc(Cl)cc12`, 1110 s; that for `CCC(C(=O)N1CCN(c2ccccn2)CC1)n1c2ccccc2c2cnn(C)c(=O)c21` (stereo not given), 638 s. The result for `CCc1nc(-c2ccc3c(c2)CCN3C(=O)COc2ccccc2)no1` reads 988 s; that for `Cc1ccc(S(=O)(=O)N2C(=O)CCC2C(=O)NCc2ccc(Cl)cc2)cc1C` (stereo not given), 966 s.

`CCn1ncc(N2CCCC(CC(=O)N3CCC4(CC3)OCCO4)C2)cc1=O` (stereo not given) came in with an RP-LC retention time of 646 s. The figure for `O=S(=O)(c1cccc(-c2nnc(-c3ccccc3Br)o2)c1)N1CCCC1` is 1040 s; for `CC(NC(=O)C1CCCN(C(=O)c2cc3sccc3n2C)C1)c1ccc2c(c1)OCCO2` (stereo not given) it is 838 s. Regarding `COc1ccc(C(=O)N2C[C@@H]3C[C@H](NC(=O)c4cccs4)[C@H]2C3)c(OC)c1`, the RP-LC retention time was determined as 701 s. For `O=C(NCCOc1ccc2c(c1)OCO2)C1CCCC1`, the RP-LC retention time stood at 741 s.

Regarding `O=C(NC1CCCC1)C1CCCCN1S(=O)(=O)c1ccc(F)cc1` (stereo not given), the RP-LC retention time amounted to 941 s. The figure for `O=C(C1CCN(S(=O)(=O)c2cc(-c3noc(C4CC4)n3)cs2)CC1)N1CCc2ccccc21` is 1070 s; for `Oc1ccccc1CN1CCN(c2cc(-c3ccccc3)[nH]n2)CC1` it is 610 s; for `COc1ccc(NC(=O)C(C)C2CCN(C(=O)Nc3ccccc3)CC2)cc1Cl` (stereo not given) it is 850 s.

`CCOC(=O)c1csc(NC(=O)c2ccccc2[N+](=O)[O-])n1` had an RP-LC retention time of 721 s.

In turn, `CCN1C(=O)C(CC(=O)NC(C)C)Sc2ncccc21` (stereo not given) came in with an RP-LC retention time of 655 s. `O=C(NC1CCCCC1)N1CCCC(Cn2c(C3CC3)nc3cccnc32)C1` (stereo not given) gave an RP-LC retention time of 668 s. The result for `O=C(OCC(O)COC(=O)c1cccnc1)c1cccnc1` reads 624 s.

On to `COc1c(C(=O)NC(C)(C)C)sc2ccc(F)cc12`, for which the RP-LC retention time stood at 1080 s. The result for `CCC(=O)N1CCCC(c2nc(CNC(=O)C(C)C)cs2)C1` (stereo not given) reads 632 s. `CCC(=O)Nc1cc2c(cc1S(=O)(=O)c1ccccc1)n(CC)c(=O)n2CC` yielded an RP-LC retention time of 786 s. The result for `CNc1nc(Nc2ccc(F)cc2C)nc2ccccc12` reads 678 s; that for `CC(C)Cc1nnc(NC(=O)C2CCN(C(=O)c3ccccc3)CC2)s1`, 750 s.

`O=C(NCCN1C(=O)C2(CCCCC2)C1c1ccccc1)Nc1ccccc1F` (stereo not given) yielded an RP-LC retention time of 965 s.

For `Cc1ccc(-c2nc3cc(C)ccn3c2NC(=O)c2ccc(Cl)cc2)cc1`, the RP-LC retention time stood at 742 s. The result for `Cc1ccc(-c2csc3c(=O)n(Cc4cc(=O)n5ccccc5n4)cnc23)cc1` reads 847 s; that for `COc1cccc(-c2nc(C3CCN(S(=O)(=O)c4c(C)cc(C)cc4C)CC3)no2)c1`, 1320 s. As for `CC(C)NC(=O)c1nsc(C(=O)N2CCN(c3ncccn3)CC2)c1N`, the RP-LC retention time amounted to 764 s. With `COc1cccc2cc(C(=O)Nc3nc(C)cs3)oc12`, the RP-LC retention time turned out to be 804 s.

Compound `CCOc1ccc(-c2nc(C3CC(=O)N(c4ccc(CC)cc4)C3)no2)cc1OCC` (stereo not given) returned an RP-LC retention time of 1180 s. The compound `COc1cc(NC(=O)N2CC(C)Oc3ccccc32)cc(OC)c1OC` (stereo not given) showed an RP-LC retention time of 862 s. The figure for `O=c1c(O[C@@H]2O[C@H](CO)[C@H](O)[C@H](O)[C@H]2O)c(-c2ccc(O)c(O)c2)oc2cc(O)cc(O)c12` is 656 s.

`Cc1nnc(N2CCC(C(=O)NCCN(C)C)CC2)c2nn(-c3ccc(Cl)cc3)c(C)c12` displayed an RP-LC retention time of 586 s. The result for `CCOC(=O)c1ccccc1NC(=O)C1CCCN(c2ncnc3c2nc2n3CCCCC2)C1` (stereo not given) reads 876 s. `CN(C)C(=O)c1cc2c(s1)CCC(C(=O)NC1CCCC1)C2` (stereo not given) yielded an RP-LC retention time of 696 s. Consider `Cc1ccc(-c2nc(-c3ccc(S(=O)(=O)N4CCC(C(=O)N5CCCC5)CC4)cc3)no2)cc1`, for which the RP-LC retention time stood at 1090 s. `Cc1ccc(C)c(NC(=O)N(C)CCc2noc(COc3ccccc3F)n2)c1` returned an RP-LC retention time of 919 s. The result for `COc1cc2c(cc1OC)C(C(=O)Nc1ccc(C(C)C)cc1)C(c1cccnc1)N(C)C2=O` (stereo not given) reads 720 s. Compound `Cc1cc(C)cc(-c2nnc(Cc3nc(-c4ccc(F)cc4)no3)o2)c1` came in with an RP-LC retention time of 1120 s. `CCc1noc(NC(C)=O)c1-c1ccc(C)c(S(=O)(=O)Nc2cc(Cl)ccc2OC)c1` had an RP-LC retention time of 872 s. The figure for `CCOc1ccc(-c2[nH]ncc2CN)cc1` is 575 s.

`Cc1ccc(N2CCN(Cc3nc(-c4ccc(N5CCCC5)nc4)no3)CC2)cc1` gave an RP-LC retention time of 678 s. For the compound `O=C(c1ccccc1Br)N1CCc2nc(-c3ccccc3)ncc2C1`, the RP-LC retention time came out at 963 s. The result for `O=C(Cn1nc2nc(N3CCCC3)ccn2c1=O)NCc1ccc(F)cc1Cl` reads 688 s; that for `O=C1CC(C(=O)N2CCCC2)CN1CCc1c[nH]c2ccc(Cl)cc12` (stereo not given), 731 s; that for `COc1ccccc1CCC(=O)N1CCn2cnnc2C1`, 594 s. The figure for `Cc1nnc(C2CCCN(C(=O)c3nc4ccccc4s3)C2)s1` (stereo not given) is 736 s; for `Cc1ccc(NC(=O)CCc2ccc3nc[nH]c3c2)cc1Cl` it is 646 s.

The values above are taken from the METLIN SMRT retention time set (Domingo-Almenara et al. 2019).
